Assay results reported in patent US20250304576A1 (Cancer Research Technology Limited, priority 2022, published 2025).

Each molecule was assayed against T1, CHUK (IKK alpha) (Homo sapiens, UniProt O15111) (assay: Adapta IKKα assay (TR-FRET ADP formation, Life Technologies)). Conditions: Adapta assay (second line of an example).
T1 construct: purchased Life Technologies (assay performed by the vendor)
T1 sequence (O15111 1-745): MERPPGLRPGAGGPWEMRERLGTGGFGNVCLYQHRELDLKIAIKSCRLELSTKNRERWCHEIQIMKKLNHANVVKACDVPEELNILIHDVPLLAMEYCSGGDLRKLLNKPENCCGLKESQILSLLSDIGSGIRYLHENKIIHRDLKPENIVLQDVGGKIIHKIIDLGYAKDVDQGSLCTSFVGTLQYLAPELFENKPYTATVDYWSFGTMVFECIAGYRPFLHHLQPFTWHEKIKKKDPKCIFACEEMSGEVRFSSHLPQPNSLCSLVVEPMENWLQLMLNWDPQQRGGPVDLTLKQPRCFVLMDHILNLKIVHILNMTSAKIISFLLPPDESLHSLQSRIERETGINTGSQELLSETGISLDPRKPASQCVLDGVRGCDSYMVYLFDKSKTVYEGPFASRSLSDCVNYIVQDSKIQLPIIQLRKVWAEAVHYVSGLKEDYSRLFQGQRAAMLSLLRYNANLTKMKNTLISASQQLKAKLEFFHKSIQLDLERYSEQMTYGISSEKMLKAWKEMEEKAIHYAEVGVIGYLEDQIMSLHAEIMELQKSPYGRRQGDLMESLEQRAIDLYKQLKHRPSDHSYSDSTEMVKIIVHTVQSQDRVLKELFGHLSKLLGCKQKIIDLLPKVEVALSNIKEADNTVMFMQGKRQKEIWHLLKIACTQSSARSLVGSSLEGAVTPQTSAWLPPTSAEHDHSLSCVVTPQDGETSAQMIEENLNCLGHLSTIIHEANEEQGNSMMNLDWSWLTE
Type: biochemical
Description: IKKα and IKKβ inhibitory activity was determined using three different assays: a dissociation enhanced ligand fluorescent immunoassay (DELFIA) based on the protocol of HTScan™ IKKβ Kinase Assay (Cell Signaling Technology, USA); an Adapta IKKα assay (performed by Life Technologies); a Z′-LYTE™ IKKβ assay (performed by Life Technologies).
The reaction was performed in low-volume white 384-well plates (Corning model 4512).
The test compounds were screened in 1% DMSO (final) in the well. For 10 point titrations, 3-fold serial dilutions were conducted from the starting concentration of 50 mM.
The 2× CHUK (IKK alpha) kinase was prepared in 50 mM HEPES pH 7.5, 0.01% BRIJ-35, 10 mM MgCl2 and 1 mM EGTA. The final 10 μL kinase mixture consisted of 50-250 ng CHUK (IKK alpha) in 32.5 mM HEPES pH 7.5, 0.005% BRIJ-35, 5 mM MgCl2 and 0.5 mM EGTA. No substrate was required, as the assay measures the ability of a compound to inhibit the kinase's intrinsic ATPase activity.
5 μL of 2× Kinase mixture was incubated with 2.5 μL of ATP solution diluted to a 4×working concentration in water, in the presence of 100 nL of 100× test compound in 100% DMSO and 2.4 μL of 30 mM HEPES buffer.
After 30-second plate shake and 1-minute centrifuge at 1000×g, the resulting kinase reaction was allowed to incubate for 1 hour at room temperature before 5 μL of Detection Mix was added.
The Detection Mix, previously prepared in TR-FRET Dilution Buffer, consisted of EDTA (30 mM), Eu-anti-ADP antibody (6 nM) and an Alexa Fluor™ 647 labelled ADP tracer. The Detection Mix contained the EC60 concentration of tracer for 5-150 μM ATP.
After 30-second plate shake and 1-minute centrifuge at 1000×g, the Detection Mix was allowed to equilibrate at room temperature for 1 hour. Then the plate was read using a fluorescence plate reader configured for Adapta™ TR-FRET and the data analysed.
ADP formation was determined by calculating the emission ratio from the assay well. Therefore, the emission ratio was calculated by dividing the intensity of the tracer (acceptor) emission by the intensity of the Eu (donor) emission at 615 nm as shown in the equation below.
The IKKα and IKKb figures quoted in italicised form are from the Adapta assay described above.

| IC50 [nM] | Structure (SMILES) |
| --- | --- |
| 1 | Nc1n[nH]c2ccc(-c3ccnc4[nH]c(CO)cc34)cc12 [Example 224] |
| 1 | Nc1n[nH]c2ccc(-c3ccnc4[nH]c(C5CCOCC5)cc34)cc12 [Example 228, 5-(2-(tetrahydro-2H-pyran-4-yl)-1H-pyrrolo[2,3-b]pyridin-4-yl)-1H-indazol-3-amine] |
| 1 | Nc1n[nH]c2ccc(-c3ccnc4[nH]c(C5CCCCO5)cc34)cc12 (stereo not drawn) [Example 229, 5-(2-(Tetrahydro-2H-pyran-2-yl)-1H-pyrrolo[2,3-b]pyridin-4-yl)-1H-indazol-3-amine] |
| 1 | Nc1n[nH]c2ccc(-c3ccnc4[nH]c(CC5CCOCC5)cc34)cc12 [Example 230, 5-(2-((tetrahydro-2H-pyran-4-yl)methyl)-1H-pyrrolo[2,3-b]pyridin-4-yl)-1H-indazol-3-amine] |
| 32 | Nc1n[nH]c2ccc(-c3ccnc4[nH]c(C(=O)N5CCCC5)cc34)cc12 [Example 234, (4-(3-Amino-1H-indazol-5-yl)-1H-pyrrolo[2,3-b]pyridin-2-yl)(pyrrolidin-1-yl)methanone] |
| 2 | Nc1n[nH]c2ccc(-c3ccnc4[nH]c(C(=O)NC5CCCCC5)cc34)cc12 [Example 236, 4-(3-Amino-1H-indazol-5-yl)-N-cyclohexyl-1H-pyrrolo[2,3-b]pyridine-2-carboxamide] |
| 13 | CN1CCN(C(=O)c2cc3c(-c4ccc5[nH]nc(N)c5c4)ccnc3[nH]2)CC1 [Example 243, (4-(3-Amino-1H-indazol-5-yl)-1H-pyrrolo[2,3-b]pyridin-2-yl)(4-methylpiperazin-1-yl)methanone] |
| 34 | CC(C)(C)NCc1cc2c(-c3ccc4[nH]nc(N)c4c3)ccnc2[nH]1 [Example 248, 5-(2-((tert-Butylamino)methyl)-1H-pyrrolo[2,3-b]pyridine-4-yl)-1H-indazol-3-amine] |
| 41 | Nc1n[nH]c2ccc(-c3ccnc4[nH]c(C5CCCCN5)cc34)cc12 (stereo not drawn) [Example 250, 5-(2-(Piperidin-2-yl)-1H-pyrrolo[2,3-b]pyridine-4-yl)-1H-indazol-3-amine] |
| 6 | Nc1n[nH]c2ccc(-c3ccnc4[nH]c(CNC5CCCCC5)cc34)cc12 [Example 251, 5-(2-((cyclohexylamino)methyl)-1H-pyrrolo[2,3-b]339yridine-4-yl)-1H-indazol-3-amine] |
| 10 | CN(C)CCCNCc1cc2c(-c3ccc4[nH]nc(N)c4c3)ccnc2[nH]1 [Example 258, N^1-((4-(3-amino-1H-indazol-5-yl)-1H-pyrrolo[2,3-b]pyridin-2-yl)methyl)-N^3,N^3-dimethylpropane-1,3-diamine] |
| 32 | CC(C)N(C)Cc1cc2c(-c3ccc4[nH]nc(N)c4c3)ccnc2[nH]1 [Example 259, 5-(2-((Isopropyl(methyl)amino)methyl)-1H-pyrrolo[2,3-b]pyridine-4-yl)-1H-indazol-3-amine] |
| 27 | Nc1n[nH]c2ccc(-c3ccnc4[nH]c(CN5CCCCC5)cc34)cc12 [Example 260, 5-(2-(Piperidin-1-ylmethyl)-1H-pyrrolo[2,3-b]pyridine-4-yl)-1H-indazol-3-amine] |
| 11 | Nc1n[nH]c2ccc(-c3ccnc4[nH]c(CN5CCC(F)(F)CC5)cc34)cc12 [Example 261, 5-(2-((4,4-Difluoropiperidin-1-yl)methyl)-1H-pyrrolo[2,3-b]pyridine-4-yl)-1H-indazol-3-amine] |
| 2 | Nc1n[nH]c2ccc(-c3ccnc4[nH]c(CN5CCOCC5)cc34)cc12 [Example 262, 5-(2-(Morpholinomethyl)-1H-pyrrolo[2,3-b]pyridine-4-yl)-1H-indazol-3-amine] |
| 14 | CN1CCN(Cc2cc3c(-c4ccc5[nH]nc(N)c5c4)ccnc3[nH]2)CC1 [Example 263, 5-(2-((4-Methylpiperazin-1-yl)methyl)-1H-pyrrolo[2,3-b]pyridine-4-yl)-1H-indazol-3-amine] |
| 13 | Nc1n[nH]c2ccc(-c3ccnc4[nH]c(CN5CCCCCC5)cc34)cc12 [Example 265, 5-(2-(Azepan-1-ylmethyl)-1H-pyrrolo[2,3-b]pyridine-4-yl)-1H-indazol-3-amine] |
| 11 | CN1CCCN(Cc2cc3c(-c4ccc5[nH]nc(N)c5c4)ccnc3[nH]2)CC1 [Example 266, 5-(2-((4-Methyl-1,4-diazepan-1-yl)methyl)-1H-pyrrolo[2,3-b]pyridin-4-yl)-1H-indazol-3-amine] |
| 8 | Nc1n[nH]c2ccc(-c3ccnc4[nH]c(CCN5CCCCC5)cc34)cc12 [Example 267, 5-(2-(2-(Piperidin-1-yl)ethyl)-1H-pyrrolo[2,3-b]pyridine-4-yl)-1H-indazol-3-amine] |
| 1 | Nc1n[nH]c2ccc(-c3ccnc4[nH]c(CCN5CCOCC5)cc34)cc12 [Example 268, 5-(2-(2-Morpholinoethyl)-1H-pyrrolo[2,3-b]pyridin-4-yl)-1H-indazol-3-amine] |
| 4 | Nc1n[nH]c2ccc(-c3ccnc4[nH]c(CCCN5CCCCC5)cc34)cc12 [Example 269, 5-(2-(3-(Piperidin-1-yl)propyl)-1H-pyrrolo[2,3-b]pyridin-4-yl)-1H-indazol-3-amine] |
| 1 | Nc1n[nH]c2ccc(-c3ccnc4[nH]c(CCCN5CCOCC5)cc34)cc12 [Example 271, 5-(2-(3-Morpholinopropyl)-1H-pyrrolo[2,3-b]pyridin-4-yl)-1H-indazlo-3-amine] |
| 1 | Nc1n[nH]c2ccc(-c3ccnc4[nH]c(CC5CCNCC5)cc34)cc12 [Example 272, 5-(2-(Piperidin-4-ylmethyl)-1H-pyrrolo[2,3-b]pyridin-4-yl)-1H-indazol-3-amine] |

| Structure (SMILES) | IC50 [nM] |
| --- | --- |
| CC(C)(C)OCc1cc2c(-c3ccc4[nH]nc(N)c4c3)ccnc2[nH]1 [Example 227, 5-(2-(tert-Butoxymethyl)-1H-pyrrolo[2,3-b]pyridin-4-yl)-1H-indazol-3-amine] | 2 |
